# Biological target: Disintegrin and metalloproteinase domain-containing protein 17 (Homo sapiens, UniProt P78536)
# Test: Inhibition of TACE (unknown origin) using fluorogenic LAQAVRSSSR peptide as a substrate by fluorometric assay
# Disintegrin and metalloproteinase domain-containing protein 17, sequence (P78536 whole entry, the tested form may be a part): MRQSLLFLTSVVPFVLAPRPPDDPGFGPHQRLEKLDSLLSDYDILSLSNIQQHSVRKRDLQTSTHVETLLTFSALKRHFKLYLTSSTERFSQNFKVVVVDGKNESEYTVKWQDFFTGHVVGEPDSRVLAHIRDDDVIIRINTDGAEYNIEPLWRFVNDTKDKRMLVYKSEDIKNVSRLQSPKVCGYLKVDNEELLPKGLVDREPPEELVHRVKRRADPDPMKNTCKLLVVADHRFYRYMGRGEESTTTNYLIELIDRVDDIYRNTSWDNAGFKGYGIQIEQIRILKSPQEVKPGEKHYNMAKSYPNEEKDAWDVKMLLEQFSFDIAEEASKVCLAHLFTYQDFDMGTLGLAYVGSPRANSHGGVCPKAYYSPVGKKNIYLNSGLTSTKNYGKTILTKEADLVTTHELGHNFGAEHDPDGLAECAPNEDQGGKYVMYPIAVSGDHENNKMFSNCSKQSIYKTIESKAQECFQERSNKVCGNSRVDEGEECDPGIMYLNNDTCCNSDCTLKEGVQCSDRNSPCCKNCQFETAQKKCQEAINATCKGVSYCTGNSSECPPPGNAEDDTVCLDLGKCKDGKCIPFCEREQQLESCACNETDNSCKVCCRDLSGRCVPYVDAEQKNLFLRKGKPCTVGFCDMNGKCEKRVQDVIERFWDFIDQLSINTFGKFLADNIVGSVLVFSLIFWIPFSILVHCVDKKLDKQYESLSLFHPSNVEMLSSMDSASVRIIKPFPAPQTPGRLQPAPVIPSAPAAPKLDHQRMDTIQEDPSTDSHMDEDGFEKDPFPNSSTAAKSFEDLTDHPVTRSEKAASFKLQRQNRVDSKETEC
row,IC50 [nM],Structure (SMILES)
1,4,CC#CCOc1ccc(S(=O)(=O)NC(C)C(=O)NO)cc1 (configuration not stated)
2,0.3,CNC(=O)[C@H](Cc1cccc2c1CCCC2)NC(=O)[C@H](CC(C)C)[C@H](C)C(=O)NO
